For series [1], the system named is HL60 (human pro-myelocytic leukaemia). Nature of the series: MTT cytotoxicity assay, HL60. It counts as cell-based. The note with it: for IC50: MTT, 72 h exposure, three independent experiments, read-out: Cytotoxic activity IC50 (95% CI) HL60; for Selectivity index HL60: ratio of cytotoxicity L929 / HL60. Here is the method: (§1) In this study, the IC50 was obtained in micromolar concentrations, using the colourimetric MTT (3-(4,5-dimethylthiazol-2-yl)-2,5-diphenyl tetrazolium bromide)) assay, and doxorubicin was used as the positive control. […] The activity against the non-tumoural murine fibroblast cell line L929 was also evaluated in order to study the cytotoxicity behaviour of each compound and to understand their respective relative selectivity. The selectivity index was obtained using the ratio of measured cytotoxicity between the L929 cell line and each of the cancer cell lines, and the results are presented in Table 2.
(§2) The in vitro cytotoxicity activity of the compounds was evaluated by the colorimetric MTT (3-(4,5-dimethylthiazol-2-yl)-2,5-diphenyl tetrazolium bromide)) assay using the following tumor cell lines: HCT-116 (colon carcinoma), PC3 (prostate), SNB-19 (glioblastoma), K-562 (myelogenous leukaemia), HL-60 (human promyelocytic leukaemia), B16 (murine melanoma), A549 (human lung carcinoma), KG1 (human acute myeloid leukaemia), and RAJI (human Burkitt’s lymphoma), which were provided by the National Cancer Institute (Bethesda, MD, USA). The L929 cell line (mouse fibroblast L cells NCTC clone 929) employed in this study as a control cell line was obtained from the American Type Culture Collection (Manassas, VA, USA). The cell lines (Table S4) were maintained in flasks containing RPMI 1640 or DMEM medium supplemented with 10% bovive fetal sérum, 100 U/mL penicillin, and 100 μg/mL streptomycin at 37 °C and in 5% CO2 atmosphere. The compounds tested were dissolved in DMSO. Doxorubicin served as the positive control. Cell treatments were performed with three replicates and the cells were mycoplasma free. After 72 h incubation, 100 μL of MTT solution (0.5 mg/mL) was added to each well, and the cells were incubated for 3 h. The supernatant was removed and 100 μL of DMSO was added and the absorbance at 595 nm was measured using Victor Nivo Multimode plate reader (PerkinElmer, Waltham, MA, USA). The absorbances obtained were used to calculate the IC50 values by nonlinear regression employing appropriate statistical software.
(§3) The in vitro cytotoxicity activity of compounds was evaluated by the colorimetric MTT (3-(4,5-dimethylthiazol-2-yl)-2,5-diphenyl tetrazolium bromide)) assay using tumor cell lines: HCT-116 (colon carcinoma), PC3 (prostate), SNB-19 (glioblastoma), K-562 (myelogenous leukaemia), HL-60 (human promyelocytic leukaemia), B16 (murine melanoma), A549 (human lung carcinoma), KG1 (human acute myeloid leukaemia) and RAJI (human Burkitt's lymphoma), which were provided by the National Cancer Institute (Bethesda, MD, USA). The L929 cell line (mouse fibroblast L cells NCTC clone 929) employed in this study as a control cell line was obtained from the American Type Culture […]
(§4) Collection (Manassas, VA, USA). Cell lines (Table 01) were maintained in flasks containing RPMI 1640 or DMEM medium supplemented with 10% bovive fetal sérum, 100 U/mL penicillin, and 100 μg/mL streptomycin at 37 °C and 5% CO2 atmosphere.
(§5) Compounds tested were dissolved in DMSO. Doxorubicin served as positive control. Cell treatments were performed with three replicates and cells were mycoplasma-free. After 72 h incubation, 100 μL of MTT solution (0.5 mg/mL) was added to each well, and cells were incubated for 3 h. The supernatant was removed and 100 μL of DMSO was added and the absorbance at 595 nm was measured using Victor Nivo Multimode plate reader
(In general: Tetrazolium assays rely on reduction of a dye to a coloured formazan, in cell work by metabolically active cells.)

The subject of series [2] is K-562 (human chronic myeloid leukaemia). Nature of the series: MTT cytotoxicity assay, K-562. It is filed as cell-based. Conditions: for IC50: Homo sapiens, K562, MTT, 72 h exposure, three independent experiments, read-out: Cytotoxic activity IC50 (95% CI) K-562; for Selectivity index K-562: ratio of cytotoxicity L929 / K-562. Here is the method:
as §1, §2, §3, §4, §5

Series [3] deals with PC3 (human prostate adenocarcinoma). Briefly: MTT cytotoxicity assay, PC3. It counts as cell-based. Conditions: for IC50: Homo sapiens, MTT, 72 h exposure, three independent experiments, read-out: Cytotoxic activity IC50 (95% CI) PC3; for Selectivity index PC3: ratio of cytotoxicity L929 / PC3. Here is the method:
as §1, §2, §3, §4, §5

Series [4] relates to A549 (human lung carcinoma). Nature of the series: MTT cytotoxicity assay, A549. It is filed as cell-based. Conditions: for IC50: Homo sapiens, A549, MTT, 72 h exposure, three independent experiments, read-out: Cytotoxic activity IC50 (95% CI) A549; for Selectivity index A549: ratio of cytotoxicity L929 / A549. The protocol: as §1, §2, §3, §4, §5
Series [5] deals with RAJI (human Burkitt’s lymphoma). Briefly: MTT cytotoxicity assay, RAJI. Conditions: for IC50: MTT, 72 h exposure, three independent experiments, read-out: Cytotoxic activity IC50 (95% CI) RAJI; for Selectivity index RAJI: ratio of cytotoxicity L929 / RAJI. It counts as cell-based. The protocol: as §1, §2, §3, §4, §5
Series [6] concerns SNB-19 (human astrocytoma). Briefly: MTT cytotoxicity assay, SNB-19. It counts as cell-based. The note with it: for IC50: Homo sapiens, SNB-19, MTT, 72 h exposure, three independent experiments, read-out: Cytotoxic activity IC50 (95% CI) SNB-19; for Selectivity index SNB-19: ratio of cytotoxicity L929 / SNB-19. The protocol:
as §1, §2, §3, §4, §5

The test system of series [7] is KG1 (human acute myeloid leukaemia). Nature of the series: MTT cytotoxicity assay, KG1. It counts as cell-based. Conditions: for IC50: Homo sapiens, MTT, 72 h exposure, three independent experiments, read-out: Cytotoxic activity IC50 (95% CI) KG1; for Selectivity index KG1: ratio of cytotoxicity L929 / KG1. Here is the method: as §1, §2, §3, §4, §5
In series [8] the test system is HCT-116 (human colorectal carcinoma). Briefly: MTT cytotoxicity assay, HCT-116. It counts as cell-based. The note with it: for IC50: Homo sapiens, HCT-116, 72 h, MTT, 72 h exposure, three independent experiments, read-out: Cytotoxic activity IC50 (95% CI) HCT-116; for Selectivity index HCT-116: ratio of cytotoxicity L929 / HCT-116. Here is the method: as §1, §2, §3, §4, §5

The subject of another series is B16 (murine melanoma). Briefly: MTT cytotoxicity assay, B16. It is filed as cell-based. Conditions: for IC50: Mus musculus, MTT, 72 h exposure, three independent experiments, read-out: Cytotoxic activity IC50 (95% CI) B16; for Selectivity index B16: ratio of cytotoxicity L929 / B16. The protocol:
as §1, §2, §3, §4, §5

Series [9] in a line: MTT cytotoxicity assay, L929 control line. It is filed as cell-based, mouse. The note with it: mouse, L929 fibroblast cells (non-tumoral control line), 72 h exposure, read-out: Cytotoxic activity IC50 (95% CI) L929. The protocol:
as §1, §2, §3, §4, §5

Like-named read-outs stand apart in the source and are kept apart here.

Usually IC50 stands for the point on the concentration scale where inhibition reaches its midpoint. On to `COc1cccc2c1C(=O)C(NCc1cn(C3C4=C(OC3(C)C)c3ccccc3C(=O)C4=O)nn1)=CC2=O` (stereo not shown) [Compound 19c, 3-(4-(((8-methoxy-1,4-dioxo-1,4-dihydronaphthalen-2-yl)amino)methyl)-1H-1,2,3-triazol-1-yl)-2,2-dimethyl-2,3-dihydronaphtho[1,2-b]furan-4,5-dione], for which the IC50 in [1] (Homo sapiens, HL-60, 72 h) turned out to be 1.07 µM; in series [2], 3.06 µM; in [3], 3.5 µM; in [4], 3.06 µM; in [5] (Homo sapiens, Raji, 72 h) it was 0.9 µM; in series [5], 0.93 µM. Moreover, the IC50 in series [6] came out at 8.19 µM; in [7], 4.77 µM; in series [8] it was 1.6 µM; in the series with B16 (murine melanoma) it was 1.74 µM. Further, the “Selectivity index HL60” value in [1] is recorded as 8.6. For the same molecule, the “Selectivity index K-562” value in [2] is listed as 3.0. In addition, the “Selectivity index PC3” value in series [3] is 2.6. In [4], the “Selectivity index A549” value came to 3.0. The “Selectivity index RAJI” value in [5] was 9.9. For the same molecule, in series [6], the “Selectivity index SNB-19” value was 1.1. Also, in series [7], the “Selectivity index KG1” value worked out at 1.9. The “Selectivity index HCT-116” value in [8] stood at 5.7. Moreover, in the series on B16 (murine melanoma), the “Selectivity index B16” value is 5.3. Besides, the IC50 at 72 h in series [9] worked out at 9.17 µM.
Take `CC1(C)OC2=C(CC1Cn1cc(CNC3=CC(=O)c4cc5ccccc5cc4C3=O)nn1)C(=O)C(=O)c1ccccc12` (stereo not shown) [Compound 21e, 3-((4-(((1,4-dioxo-1,4-dihydroanthracen-2-yl)amino)methyl)-1H-1,2,3-triazol-1-yl)methyl)-2,2-dimethyl-3,4-dihydro-2H-benzo[h]chromene-5,6-dione]: the half-inhibitory concentration (IC50) in series [1] (Homo sapiens, HL-60, 72 h) amounted to 0.5 µM; in series [1] it was 0.26 µM; in series [2], 3.69 µM; in [3] it was 2.87 µM; in series [4], 0.88 µM; in [5] (Homo sapiens, Raji, 72 h) it was 6.83 µM. Also, the IC50 in series [6] stood at 1.33 µM; in series [7] it was 4.21 µM; in series [8], 1.74 µM; in the series with B16 (murine melanoma) it was 2.86 µM. In [1], the “Selectivity index HL60” value was found to be 6.6. In addition, the “Selectivity index K-562” value in series [2] was determined as 0.5. Besides, in series [3], the “Selectivity index PC3” value stood at 0.6. Further, in [4], the “Selectivity index A549” value was determined as 1.9. In addition, the “Selectivity index RAJI” value in series [5] was determined as 0.3. For the same molecule, in [6], the “Selectivity index SNB-19” value is reported as 1.3. Also, in [7], the “Selectivity index KG1” value was found to be 0.4. The “Selectivity index HCT-116” value in [8] was determined as 1.0. The “Selectivity index B16” value in the series with B16 (murine melanoma) was determined as 0.6. Further, the IC50 at 72 h in [9] is 1.71 µM.
Turning to `COc1cccc2c1C(=O)C(NCc1cn(CC3CC4=C(O3)c3ccccc3C(=O)C4=O)nn1)=CC2=O` (stereo not shown) [Compound 20c, 2-((4-(((8-methoxy-1,4-dioxo-1,4-dihydronaphthalen-2-yl)amino)methyl)-1H-1,2,3-triazol-1-yl)methyl)-2,3-dihydronaphtho[1,2-b]furan-4,5-dione], the IC50 in series [1] (Homo sapiens, HL-60, 72 h) was 38.3 µM; in [2], > 100 µM; in series [3] it was > 100 µM; in series [4], 24.5 µM; in [5] (Homo sapiens, Raji, 72 h), 37 µM; in series [6] it was 49.6 µM. The IC50 in series [7] is 39.4 µM; in series [8], > 100 µM; in the series with B16 (murine melanoma), 44.1 µM. The “Selectivity index HL60” value in [1] was found to be 2.6. In addition, the “Selectivity index A549” value in [4] was determined as 4.1. In addition, the “Selectivity index RAJI” value in series [5] was 2.7. Moreover, the “Selectivity index SNB-19” value in [6] is given as 2.0. In addition, in series [7], the “Selectivity index KG1” value came out at 2.5. In addition, the “Selectivity index B16” value in the series on B16 (murine melanoma) came out at 2.3. The IC50 at 72 h in series [9] was > 100 µM.
For the molecule `O=C1C(=O)c2ccccc2C2=C1CC(Cn1cc(CNC3=CC(=O)c4cccc(OCc5ccccc5)c4C3=O)nn1)O2` (stereo not shown) [Compound 20d, 2-((4-(((8-benzyloxy-1,4-dioxo-1,4-dihydronaphthalen-2-yl)amino)methyl)-1H-1,2,3-triazol-1-yl)methyl)-2,3-dihydronaphtho[1,2-b]furan-4,5-dione], the IC50 came to 3.74 µM in series [1] (Homo sapiens, HL-60, 72 h); 10.4 µM in series [2]; 12.8 µM in [3]; 27.4 µM in series [4]; 4.32 µM in series [5] (Homo sapiens, Raji, 72 h); 10.2 µM in series [6]. Besides, the IC50 in series [7] was determined as 8.9 µM; in [8], 6.16 µM; in the series on B16 (murine melanoma) it was 9.21 µM. Further, the “Selectivity index HL60” value in series [1] amounted to 2.5. Also, the “Selectivity index K-562” value in series [2] is 0.9. The “Selectivity index PC3” value in series [3] amounted to 0.7. Also, in series [4], the “Selectivity index A549” value amounted to 0.3. Further, in [5], the “Selectivity index RAJI” value amounted to 2.2. Moreover, in [6], the “Selectivity index SNB-19” value was 0.9. In addition, the “Selectivity index KG1” value in [7] is 1.1. The “Selectivity index HCT-116” value in series [8] is listed as 1.5. The “Selectivity index B16” value in the series on B16 (murine melanoma) was 1.0. For the same molecule, the IC50 at 72 h in series [9] was 9.43 µM.
As to `C#CCNC1=CC(=O)c2cc3ccccc3cc2C1=O` [Compound 18e, 2-(prop-2-yn-1-ylamino)anthracene-1,4-dione], the IC50 in series [1] (Homo sapiens, HL-60, 72 h) is > 100 µM; in [2] it was > 100 µM; in series [3] it was > 100 µM; in series [4], > 100 µM; in [5] (Homo sapiens, Raji, 72 h), > 100 µM; in [6], > 100 µM. Also, the IC50 (in series [7]; in series [8]; in the series with B16 (murine melanoma)) was > 100 µM each time. In addition, the IC50 at 72 h in [9] was > 100 µM.

The values are drawn from PMC10005332, “It Takes Two to Tango, Part II: Synthesis of A-Ring Functionalised Quinones Containing Two Redox-Active Centres with Antitumour Activities” (Molecules, 2023).
